ChEMBL document CHEMBL1154198, “Chemical genetics of Plasmodium falciparum” (Nature, 2010)

Key:
Plasmodium falciparum [1] = test: ST_JUDE: Plasmodium falciparum K1 EC50 (uM) as measured by SYBR green dye; assay type: functional, organism-based
Plasmodium falciparum [2] = test: ST_JUDE: Plasmodium falciparum 3D7 EC50 (uM) as measured by SYBR green dye; assay type: functional, organism-based

SMILES	EC50 (Plasmodium falciparum [1]) [µM]	EC50 (Plasmodium falciparum [2]) [µM]
Oc1c(CN2CCN(c3ccccc3F)CC2)cc(Br)c2cccnc12	3.44	3.76
O=C1CC(O)(C(F)(F)C(F)(F)F)Oc2ccccc21 (configuration not stated)	2.48	2.57
CCc1cc(-c2[nH]ncc2-c2ccc(F)cc2)c(O)cc1OC	> 15	> 15
COc1ccc(C2C(C(=O)Nc3ccc(OC)cc3OC)c3ccccc3C(=O)N2C)cc1 (configuration not stated)	4.82	4.16
CCCOc1cc(Br)c(C2NC(S)=NC(c3ccccc3)=C2C(C)=O)cc1OCC (configuration not stated)	4.24	> 15
CN(C)c1ccc(Nc2nc(-c3cccnc3)nc3ccccc23)cc1	5.08	> 15
CCn1cc(CCCC(=O)NCc2ccc(OC)cc2)c2ccccc21	4.06	3.75
CC(C)CC(=O)NC(NC(=S)Nc1cccc(Cl)c1)C(Cl)(Cl)Cl (configuration not stated)	2.5	1.73
CN(C)CCCNc1c2c(nc3ccccc13)CCC2	> 15	> 15
Cc1ccc(O)c(NC(=O)c2noc3c2CC(C(C)(C)C)CC3)c1 (configuration not stated)	0.483	> 15
CCCN1C(=O)c2[nH]nc(-c3c(C)cc(C)cc3O)c2C1c1cccc(OC)c1 (configuration not stated)	2.68	5.09
CSc1nc(N)c2c(n1)N=C1CC(C)(C)CC(O)=C1C2c1cccs1 (configuration not stated)	> 15	> 15
CCCOc1cc(S(=O)(=O)n2ccnc2)ccc1Cl	> 15	> 15
CCC(=O)N1c2ccc(S(=O)(=O)CCC(=O)Nc3ccc(Br)c(C)c3)cc2CC1C (configuration not stated)	> 15	> 15
CCOCCn1c(CN(Cc2ccccc2)Cc2ccccc2)nc2c1c(=O)n(C)c(=O)n2C	> 15	> 15
CC(=O)c1cccc(NC(=O)C2c3ccccc3C(=O)N(C3CCCC3)C2c2cccs2)c1 (configuration not stated)	2.02	1.75
CSc1nnc(-c2cccc([N+](=O)[O-])c2)n1Cc1ccccc1	1.3	1.39
Clc1ccccc1Nc1nc(NCc2ccccc2)c2ccccc2n1	4.17	1.54
Cc1cc(O)nc(-n2nc(C)cc2NC(=O)c2cccc(C(F)(F)F)c2)n1	1.5	> 15
CCCCCC/N=C1\CC(C)(C)CC(O)=C1C(=O)CCCN1C(=O)c2ccccc2C1=O	> 15	> 15
COc1ccccc1CCN1C(=O)CCC1CCNCCOc1ccccc1 (configuration not stated)	> 15	> 15
CC(C)(C)CNc1cc(N2CCN(C(=O)c3cccs3)CC2)ccc1[N+](=O)[O-]	4.76	4.53
COc1ccc(OC)c(Nc2nc(NCCO)c3ccccc3n2)c1	> 15	> 15
CCOc1ccc(Nc2cc(C)nc3ccc(OCC)cc23)cc1	3.48	1.1

SMILES	EC50 (Plasmodium falciparum [1]) [µM]	EC50 (Plasmodium falciparum [2]) [µM]
CCN(CC)c1ccc(/C=N\Nc2ncc(F)c(N3CCOCC3)n2)c(O)c1	1.7	1.53
Cc1ccc(Nc2cc(C)nc(Nc3ccc(NS(=O)(=O)c4ccc(C)cc4)cc3)n2)cc1	7.97	0.621
CCc1cccc(NC(=O)C2c3ccccc3C(=O)N(C3CCCC3)C2c2cccs2)c1 (configuration not stated)	2.01	2.29
COc1ccc(NC(=O)c2c(-c3c(Cl)cccc3Cl)noc2C)c(OC)c1	5.43	> 15
CCSCCN1C(=O)CSC1c1cnccc1-c1ccc(Br)cc1 (configuration not stated)	> 15	4.91
Cc1ccc(CN2CCN(Cc3c(C)nn(C)c3Cl)CC2CCO)cc1 (configuration not stated)	> 15	> 15
O=C(Nc1ccc2oc(-c3ccccc3)nc2c1)C(Cl)(Cl)Cl	4.52	> 15
CC1(C)Cc2ccccc2C(NCC(=O)O)=N1	> 15	> 15
CCOc1ccc(C2c3cccn3CCN2C(=O)Nc2cccc(C)c2)cc1 (configuration not stated)	> 15	> 15
O=C(Nc1nnc(-c2ccc3c(c2)CCCC3)o1)c1ccc(F)cc1	> 15	> 15
CCOc1ccc(/C=C(/C#N)c2nc3ccccc3[nH]2)cc1OC	4.68	3.39
Cc1onc(-c2ccccc2Cl)c1C(=O)Nc1cc(Cl)ccc1Cl	> 15	> 15
Cc1cccc2sc(N(Cc3cccnc3)C(=O)c3ccc(C#N)cc3)nc12	3.08	> 15
O=C1C2CC=C(Cl)CC2C(=O)N1CCCCO (configuration not stated)	1.47	3.32
O=C(c1cccs1)N(Cc1cccnc1)c1nc2c(Cl)cccc2s1	3.84	> 15
CCCCN(C)S(=O)(=O)c1ccc(C(=O)N(Cc2ccccn2)c2nc3ccccc3s2)cc1	> 15	> 15
Oc1c(C(Nc2ccccn2)c2ccc(Br)cc2)ccc2cccnc12 (configuration not stated)	2.84	1.22
CCN(CC)CC(O)COc1ccccc1C(=O)CCc1ccccc1 (configuration not stated)	1.08	2.17
CC(C)(C)C(=O)Cn1ccc(=N)c2ccccc21	> 15	> 15
CCN(CC)CCn1c(=N)n(CC(O)COc2ccccc2C)c2ccccc21 (configuration not stated)	4.48	4.06
CCO/C(O)=C1\C(C)=NC2=C(C(=O)CC(c3ccc(OC)c(OC)c3)C2)C1c1ccc(SC)cc1 (configuration not stated)	3.18	3.2
CCC(C(=O)NCc1ccccc1Cl)n1c2ccccc2c2nc(=O)cc(C)n21 (configuration not stated)	> 15	> 15
O=C1CC(c2ccc(F)cc2F)C2=C(CC(c3ccc(F)cc3)CC2=O)N1 (configuration not stated)	0.73	4.71
CN(C)c1ccc(C(O)(c2ccc(N(C)C)cc2)c2ccc(N(C)C)cc2)cc1 [METHYLROSANILINE]	0.178	0.62

SMILES	EC50 (Plasmodium falciparum [1]) [µM]	EC50 (Plasmodium falciparum [2]) [µM]
COc1cccc(NC2=C(N3CCCCC3)C(=O)c3ccccc3C2=O)c1	0.153	0.052
CCCOc1ccc(-c2nonc2NC(=O)c2cccc(OC)c2)cc1OCCC	1.21	1.16
COc1ccc2nc(N(Cc3cccnc3)C(=O)CCc3ccccc3)sc2c1	3.53	> 15
CCOC(=O)c1cnc2c(C)c(C)ccc2c1Nc1cc([N+](=O)[O-])ccc1O	> 15	> 15
CC(Sc1ccc(Cl)cc1)C(=O)Nc1ccc(Br)cc1F (configuration not stated)	> 15	> 15
CC(=O)c1c(C)n(CCOc2ccc(F)cc2)c2ccccc12	4.88	> 15
N#C/C(=C/c1ccc(O)c([N+](=O)[O-])c1)c1nc(-c2ccc(Cl)cc2)cs1	> 15	> 15
CCOc1ccc(/C=C2\Oc3c(ccc(O)c3CN(CC)CC)C2=O)cc1	5.17	> 15
CC(/C=N/NC(=O)c1cc(-c2ccc(OC(C)C)cc2)n[nH]1)=C\c1ccccc1	> 15	> 15
CCc1cc2c(=O)c(-c3ccc(OC(C)C)cc3)coc2cc1OC(C)=O	4.25	> 15
CC(C)(C)c1ccc(C(=O)Nc2nc3c(s2)CN(Cc2ccccc2)CC3)cc1	> 15	> 15
CCN(CC)S(=O)(=O)c1ccc(C(=O)Nc2nc(-c3ccccc3OC)cs2)cc1	> 15	> 15
Oc1c(C(Nc2ccccn2)c2cccc(Cl)c2)cc(Cl)c2cccnc12 (configuration not stated)	4.69	7.66
NNc1nc(Nc2ccc(F)cc2)nc(N2CCOCC2)n1	5.15	7.07
CC(C)CCNCC(O)Cn1c2ccc(Br)cc2c2cc(Br)ccc21 (configuration not stated)	0.149	0.492
CCC[N+]1(C)CCC2C(C1)c1ccccc1N2Cc1ccccc1 (configuration not stated)	> 15	4.25
COc1ccc(-c2cnnc(N/N=C/c3ccc(O)cc3)n2)cc1	> 15	> 15
COc1cccc(C(=O)NC(c2ccc([N+](=O)[O-])cc2)c2c(O)ccc3ccccc23)c1 (configuration not stated)	5.25	> 15
CC[n+]1c(/C=C/c2ccc(N(C)C)cc2)sc2cc(NC(C)=O)ccc21	4.32	3.31
CCCCN1COc2c(c3c(C(C)=O)c(C)oc3c3ccccc23)C1	4.31	> 15
Cc1ccc(N2C(=O)CC(Sc3nccc(C)n3)C2=O)cc1 (configuration not stated)	> 15	> 15
CCCCc1ccc(NC(=O)Cc2csc(NC(=O)c3cc(OC)cc(OC)c3)n2)cc1	> 15	> 15
Cc1cccc(N2COc3ccc(C(C)(C)C)cc3C2)c1	> 15	> 15
